Reference: patent US20020198172A1, “Method of treating motor neuron diseases and demyelinating diseases with citicoline” (priority 1997, published 2002)
Like-named read-outs stand apart in the source and are kept apart here.

Columns and labels:
[1] = test system: patient with chronic progressive multiple sclerosis; format: in vivo
Source text: (§1) Currently, they are diagnosed with chronic-progressive multiple sclerosis. They are afflicted with visual impairments, chronic fatigue, difficulty with speech articulation, tremors in the right and left hands, decreased fine motor movement in the right greater than left hands and decreased motor strength in their lower extremities. They are without weight bearing and is confined to a wheelchair. When asked what their major barriers are as far as functional abilities on a day to day basis, they place fatigue at the top of their impairment list followed by speech difficulties and decreased fine motor movement of their hands. They experienced marked spasticity of their lower extremities with the progression of their neurological condition over the course of several years and eventually resorted to a baclofen pump which was implanted in 1997. […] They receive 85 micrograms of baclofen per day.

[2] = test system: experimental autoimmune encephalomyelitis; experiment: EAE prevention therapy, daily functional score (Example 2); format: in vivo, female Lewis rats; settings: score 0 to 4
Protocol: Thirty-two female Lewis rats are divided into four groups of eight each and on day one administered saline, citicoline (500 or 1000 mg/kg, i.p.), or dexamethasone (0.0375 mg/kg), respectively. Dexamethasone acts as a positive control through its ability to suppress immune function. […] Therapy is continued daily. […] Numerical values are averages of the functional scores in each treatment group from Days 14-21 of the study.

[3] = test system: patients; experiment: Observed tolerance of citicoline in patients; format: in vivo, human; settings: doses about 250 mg to about 2000 mg for several weeks to several years
Source text: Dosages may be varied over time depending on the severity of symptoms, individual patient tolerance, route of administration and response to treatment. Treatment may be continued indefinitely if needed and if tolerated well.

[4] = test system: patients with bulbar palsy caused by ALS; experiment: Human study in bulbar palsy caused by ALS (Example 7); format: in vivo; settings: 500-1000 mg citicoline daily
Protocol: Six patients with bulbar palsy caused by ALS are treated with 500-1000 mg each citicoline by injection (monosodium salt dissolved in 10 ml sterile isotonic solution of sodium chloride) or by a solid tablet or soft gel capsule orally and administered daily.

[5] = test system: patients suffering from ALS; experiment: Double-blind study against placebo in ALS, survival (Example 8); format: in vivo, human
Protocol: A double-blind study against placebo is performed as follows: 77 patients suffering from ALS are treated with 500 mg each citicoline by injection (monosodium salt dissolved in 10 ml sterile isotonic solution of sodium chloride) or be a solid tablet or soft gel capsule orally and administered daily, for a period of 12 to 18 months, and 78 patients receive a placebo. The results obtained are analyzed in terms of survival in the study, it being understood that “study drop-outs” (departures from the study) include individuals who actually die, and also individuals whose clinical state necessitates a tracheotomy or transfer to assisted ventilation.

[6] = test system: patients with chronic multiple sclerosis; experiment: Human study in chronic multiple sclerosis, EDSS and SNRS (Example 6); format: in vivo; settings: 250, 500, or 1,000 mg each patient each day orally or intravenously for six months; eight patients
Protocol: A study of two sets of four patients each with chronic multiple sclerosis is undertaken. Each patient is first examined for normal hepatic, renal, and bone marrow functioning to establish baseline values. Each of the patients in each group is then treated either with citicoline dissolved in sterile preservative-free isotonic saline 10% or oral tablet or capsule. The citicoline is administered orally or intravenously at a dosage of 250, 500, or 1,000 mg each patient each day for six months. Patients are examined on a daily basis. During the treatment period, daily blood counts and twice weekly blood chemistries are performed on each patient. The neurologic function of each of these patients is measured using the expanded Krutzke disability status scale (EDSS), and the Scripps neurologic rating scale (SNRS).

[7] = test system: patient with chronic progressive multiple sclerosis; experiment: Case, chronic progressive multiple sclerosis, citicoline response (Example 13); format: in vivo, human
Source text: as §1

[8] = patient history since around 1986
[9] = dexamethasone 0.0375 mg/kg daily from day one
[10] = citicoline 500 mg/kg i.p. daily from day one
[11] = citicoline 1000 mg/kg i.p. daily from day one

Compound: Nc1nc(Cl)nc2c1ncn2[C@H]1C[C@H](O)[C@@H](CO)O1 [Cladribine]
- effect of earlier treatment on multiple sclerosis [1, 8]: no effect

Compound: C[C@]12C=CC(=O)C=C1CC[C@@H]1[C@@H]2C(=O)C[C@@]2(C)[C@H]1CC[C@]2(O)C(=O)CO [Prednisone]
- effect of earlier treatment on multiple sclerosis [1, 8]: worked initially

Compound: ACTH: drug often used to treat ALS or MS (SYSMEHFRWGKPVGKKRRPVKVYPNGAEDESAEAFPLEF; Corticotropin; UniProt P01189 138-176, looked up)
- effect of earlier treatment on multiple sclerosis [1, 8]: worked initially

Compound: O=P1(N(CCCl)CCCl)NCCCO1 (stereo not drawn) [Cytoxan]
- course of earlier treatment, tolerability [1, 8]: discontinued due to adverse events

Compound: C[C@@H]1C[C@H]2[C@@H]3CCC4=CC(=O)C=C[C@]4(C)[C@@]3(F)[C@@H](O)C[C@]2(C)[C@@]1(O)C(=O)CO [Dexamethasone]
- Mean Functional Score Day 14 [2, 9]: 0.14
- Mean Functional Score Day 15 [2, 9]: 0.42
- Mean Functional Score Day 16 [2, 9]: 0.0
- Mean Functional Score Day 17 [2, 9]: 0.14
- Mean Functional Score Day 18 [2, 9]: 0.28
- Mean Functional Score Day 19 [2, 9]: 0.64
- Mean Functional Score Day 20 [2, 9]: 0.57
- Mean Functional Score Day 21 [2, 9]: 0.64

Compound: Cn1cnc([N+](=O)[O-])c1Sc1ncnc2[nH]cnc12 [Imuran]
- effect of earlier treatment on multiple sclerosis ([1]; in vivo): no effect

Compound: NCC(CC(=O)O)c1ccc(Cl)cc1 (stereo not drawn) [baclofen]
- ability to bear weight on lower extremities ([1]; baclofen pump, 85 micrograms per day): lessened their ability to bear weight on their lower extremities
- spasticity in lower extremities ([1]; baclofen pump, continuous infusion into spinal fluid, 85 micrograms per day): reduced the spasticity considerably

Compound: C[N+](C)(C)CCOP(=O)(O)OP(=O)([O-])OC[C@H]1O[C@@H](n2ccc(N)nc2=O)[C@H](O)[C@@H]1O [citicoline, cytidine-5′-diphosphocholine]
- patient tolerance [3]: tolerate citicoline well
- Mean Functional Score Day 14 [2, 10]: 0.43
- Mean Functional Score Day 15 [2, 10]: 0.41
- Mean Functional Score Day 16 [2, 10]: 0.37
- Mean Functional Score Day 17 [2, 10]: 0.38
- Mean Functional Score Day 18 [2, 10]: 0.28
- Mean Functional Score Day 19 [2, 10]: 0.59
- Mean Functional Score Day 20 [2, 10]: 0.68
- Mean Functional Score Day 21 [2, 10]: 0.87
- Mean Functional Score Day 14 [2, 11]: 0.56
- Mean Functional Score Day 15 [2, 11]: 0.78
- Mean Functional Score Day 16 [2, 11]: 0.84
- Mean Functional Score Day 17 [2, 11]: 0.69
- Mean Functional Score Day 18 [2, 11]: 0.62
- Mean Functional Score Day 19 [2, 11]: 0.91
- Mean Functional Score Day 20 [2, 11]: 0.75
- Mean Functional Score Day 21 [2, 11]: 0.84
- side effects of this treatment [4]: insignificant
- patients who die (study drop-outs) ([5]; 500 mg citicoline daily for 12 to 18 months, 77 patients, placebo 50%): 20%
- patients who die (study drop-outs) ([5]; subjects with early bulbar involvement or the bulbar form of ALS, 500 mg citicoline daily, placebo 65%): 30%
- toxic side effects [6]: no evidence of any significant toxic side effects
- adverse side effects ([7]; 500 mg per day every morning, first two weeks): no adverse side effects
- balance and fatigue on the first two days of increased dosage ([7]; 1000 mg per day (500 mg a.m., 500 mg p.m.)): balance had been poor and that their fatigue had increased
- fatigue after dosage increase ([7]; 2000 mg per day (1000 mg a.m., 1000 mg p.m.)): worsening of fatigue in the morning hours for approximately two days
